Legend:
[1] = tested on: human primary hepatic stellate cells (hHSC); assay: TGFβ1-induced expression of α-SMA protein in human HSC (ELISA); format: cell-based; conditions: TGFβ1 1 ng/ml, 48 hours
Protocol: Serum-deprived HSC were preincubated for 1 hour with NTZ (A) or TZ (B) before the activation with the profibrogenic cytokine TGFβ1 (1 ng/ml). After 48 hours of incubation, the expression of α-SMA was measured by ELISA. The obtained values were transformed into percentage inhibition over TGFβ1 control. Data are presented as mean (triplicates)±standard deviation (SD). Statistical analyses were performed by one-way ANOVA followed by Bonferroni post-hoc tests, using Sigma Plot 11.0 software. [*: p<0.05; **: p<0.01; ***: p<0.001 (comparison versus TGFβ1 1 ng/mL group)]. The curve fitting and the calculation of half maximal inhibitory concentration (IC50) were performed with XLFit software 5.3.1.3. The human primary hepatic stellate cells (hHSC) (Innoprot) were cultured in STeCM medium (ScienCell cat #5301) that was supplemented with 2% fetal bovine serum (FBS, ScienCell cat #0010), 1% penicillin/streptomycin (ScienCell cat #0503) and stellate cell growth supplement (SteCGS; ScienCell cat #5352). Cell culture flasks were coated with Poly-L Lysine (Sigma cat # P4707) for a better adherence. The human primary hepatic stellate cells (hHSC) (Innoprot) were cultured under standard conditions, as described above. The cells were subsequently plated at a density of 7×10^4 cells/well into 24-well plates for gene expression studies, and at a density of 2×10^4 cells/well into 96-well plates for the measure of α-SMA by ELISA. The next day, cell culture medium was removed, and cells were washed with PBS (Invitrogen cat #14190). hHSC were deprived for 24 hours in serum-free and SteCGS-free medium. For the treatments with NTZ or TZ, the serum-deprived hHSC were preincubated for 1 hour with the compounds followed by the addition of the profibrogenic stimuli TGFβ1 (PeproTech cat #100-21, 1 ng/mL) in serum-free and SteCGS-free medium for an additional 24 or 48 hour period (the timepoint is indicated in the figure legends). […] The level of α-SMA was measured using a Sandwich ELISA. […]

[2] = tested on: human primary hepatic stellate cells (hHSC); assay: COL1A1 transcripts in TGFβ1-induced human HSC (RT-qPCR); format: cell-based; conditions: TGFβ1 1 ng/ml, 24 hours
Protocol: Serum-deprived HSC were preincubated for 1 hour with NTZ (A) or TZ (B) before the activation with TGFβ1 (1 ng/ml). After 24 hours of incubation, the expression of COL1A1 was measured by RT-qPCR. Expression values were transformed into fold induction over TGFβ1 control. Data are presented as mean (triplicates)±standard deviation (SD). Statistical analyses were performed by one-way ANOVA followed by Bonferroni post-hoc tests, using Sigma Plot 11.0 software. [*: p<0.05; **: p<0.01; ***: p<0.001 (comparison versus TGFβ1 1 ng/mL group)]. The human primary hepatic stellate cells (hHSC) (Innoprot) were cultured under standard conditions, as described above. The cells were subsequently plated at a density of 7×10^4 cells/well into 24-well plates for gene expression studies, and at a density of 2×10^4 cells/well into 96-well plates for the measure of α-SMA by ELISA. The next day, cell culture medium was removed, and cells were washed with PBS (Invitrogen cat #14190). hHSC were deprived for 24 hours in serum-free and SteCGS-free medium. […] Quantitative PCR was then carried out using the MyiQ Single-Color Real-Time PCR Detection System (Biorad). […] Expression levels were determined using the standard curve equation for both the housekeeping gene and the target gene (taking into account the specific PCR efficiency of each target gene).

IC50 ([1]; Homo sapiens, 1 h preincubation, read-out: IC50 (level of α-SMA in TGFβ-induced HSCs)): 100 to 3000 nM
Structure (SMILES): O=C(Nc1ncc([N+](=O)[O-])s1)c1ccccc1O [TZ, 2-hydroxy-N-(5-nitro-2-thiazolyl)benzamide]
level of α-SMA in TGFβ-induced HSCs [1]: profile similar to the parent drug
COL1A1 transcripts [2]: reduce
